In ChEMBL document CHEMBL2069256, “Development of Toxoplasma gondii calcium-dependent protein kinase 1 (TgCDPK1) inhibitors with potent anti-toxoplasma activity” (J Med Chem, 2012):

What was measured:
[1] = system: Toxoplasma gondii; assay: microbe, parasite or virus in culture; conditions: 44 h
[2] = Inhibition of Toxoplasma gondii CDPK1 Gly128Met mutant using syntide-2 peptide as substrate after 90 mins by kinase glo-luciferase assay
[3] = target: Tyrosine-protein kinase ABL1 (Homo sapiens, UniProt P00519); assay: Inhibition of human ABL using EAIYAAPFAKKK-OH as substrate by phosphor imaging method
[4] = target: Tyrosine-protein kinase Lck (Homo sapiens, UniProt P06239); assay: Inhibition of human LCK using Ac-EIYGEFKKK-OH as substrate after 60 mins
[5] = target: Mitogen-activated protein kinase 14 (Homo sapiens, UniProt Q16539); assay: Inhibition of human p38alpha using myelin basic protein as substrate after 180 mins
[6] = target: T1, Ephrin type-A receptor 3 (Homo sapiens, UniProt P29320); assay: Inhibition of human EPHA3 using myelin basic protein as substrate after 120 mins
T1 sequence (P29320 whole entry): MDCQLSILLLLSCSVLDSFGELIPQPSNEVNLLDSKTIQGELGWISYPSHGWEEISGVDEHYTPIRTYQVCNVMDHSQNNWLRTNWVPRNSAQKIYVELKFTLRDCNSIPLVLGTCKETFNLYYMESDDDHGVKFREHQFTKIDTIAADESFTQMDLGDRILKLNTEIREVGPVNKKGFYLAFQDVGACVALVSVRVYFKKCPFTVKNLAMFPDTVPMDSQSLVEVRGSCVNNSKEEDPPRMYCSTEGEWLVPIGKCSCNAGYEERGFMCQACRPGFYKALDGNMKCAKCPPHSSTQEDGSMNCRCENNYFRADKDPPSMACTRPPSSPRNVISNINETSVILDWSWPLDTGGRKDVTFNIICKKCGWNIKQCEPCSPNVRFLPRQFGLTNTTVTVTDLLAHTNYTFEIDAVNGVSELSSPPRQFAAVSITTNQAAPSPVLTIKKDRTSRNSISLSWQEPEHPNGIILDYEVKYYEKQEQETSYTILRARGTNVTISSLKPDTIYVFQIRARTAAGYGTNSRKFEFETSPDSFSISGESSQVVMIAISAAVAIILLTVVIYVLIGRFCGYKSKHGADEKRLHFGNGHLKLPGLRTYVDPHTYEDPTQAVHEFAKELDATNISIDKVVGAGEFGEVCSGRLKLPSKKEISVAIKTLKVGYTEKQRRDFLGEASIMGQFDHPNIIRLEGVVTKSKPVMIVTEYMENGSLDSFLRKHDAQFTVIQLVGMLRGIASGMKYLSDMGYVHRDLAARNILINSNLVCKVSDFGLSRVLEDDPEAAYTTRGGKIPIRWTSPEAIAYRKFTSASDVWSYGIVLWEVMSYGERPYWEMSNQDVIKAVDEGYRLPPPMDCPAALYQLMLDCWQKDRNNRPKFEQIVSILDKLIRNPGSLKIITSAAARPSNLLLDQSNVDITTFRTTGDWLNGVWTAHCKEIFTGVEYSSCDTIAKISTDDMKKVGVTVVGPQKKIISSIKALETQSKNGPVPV

[7] = target: Tyrosine-protein kinase CSK (Homo sapiens, UniProt P41240); assay: Inhibition of human CSK using Ac-KKKKEEIYFFF-OH as substrate after 180 mins
[8] = target: Epidermal growth factor receptor (Homo sapiens, UniProt P00533); assay: Inhibition of human EGFR using poly glu-Tyr as substrate after 30 mins
[9] = system: HL-60; assay: Cytotoxicity against human HL60 cells assessed as inhibition of cell growth after 48 to 72 hrs by alamar blue assay; assay type: cell-based
[10] = Cytotoxicity against human CRL8155 cells assessed as inhibition of cell growth after 48 to 72 hrs by alamar blue assay; assay type: cell-based
[11] = Inhibition of Toxoplasma gondii CDPK1 using syntide-2 peptide as substrate after 90 mins by kinase glo-luciferase assay
[12] = target: Proto-oncogene tyrosine-protein kinase Src (Homo sapiens, UniProt P12931)
[13] = system: Toxoplasma gondii; assay: Antiparasitic activity against Toxoplasma gondii expressing CDPK1 Gly128Met mutant; assay type: functional, organism-based

Row | SMILES | EC50 [1] [nM] | further results
1 | CCCOc1ccc2cc(-c3nn(C(C)C)c4ncnc(N)c34)ccc2c1 | > 6250 | 
2 | CCCOc1ccc2cc(-c3nn(CC4CCNCC4)c4ncnc(N)c34)ccc2c1 | 160 | 
3 | CC(C)COc1ccc2cc(-c3nn(C(C)C)c4ncnc(N)c34)ccc2c1 | 310 | 
4 | CC(C)COc1ccc2cc(-c3nn(CC4CCNCC4)c4ncnc(N)c34)ccc2c1 | 210 | 
5 | CCCCOc1ccc2cc(-c3nn(C(C)C)c4ncnc(N)c34)ccc2c1 | 90 | 
6 | CCCCOc1ccc2cc(-c3nn(CC4CCNCC4)c4ncnc(N)c34)ccc2c1 | 60 | 
7 | CC(C)n1nc(-c2ccc3cc(OCc4ccccc4)ccc3c2)c2c(N)ncnc21 | 3.3 | 
8 | Nc1ncnc2c1c(-c1ccc3cc(OCc4ccccc4)ccc3c1)nn2CC1CCNCC1 | 130 | 
9 | CC(C)n1nc(-c2ccc3cc(OCc4ccccc4Cl)ccc3c2)c2c(N)ncnc21 | 140 | 
10 | Nc1ncnc2c1c(-c1ccc3cc(OCc4ccccc4Cl)ccc3c1)nn2CC1CCNCC1 | 1100 | 
11 | CC(C)n1nc(-c2ccc3cc(OCc4cccc(Cl)c4)ccc3c2)c2c(N)ncnc21 | 12 | 
12 | Nc1ncnc2c1c(-c1ccc3cc(OCc4cccc(Cl)c4)ccc3c1)nn2CC1CCNCC1 | 100 | 
13 | CC(C)n1nc(-c2ccc3cc(OCc4ccc(Cl)cc4)ccc3c2)c2c(N)ncnc21 | 13 | 
14 | Nc1ncnc2c1c(-c1ccc3cc(OCc4ccc(Cl)cc4)ccc3c1)nn2CC1CCNCC1 | 460 | IC50 [2]: 1100 nM
15 | CCOc1ccc2cc(-c3nn(C[C@@H](N)C(C)C)c4ncnc(N)c34)ccc2c1 | 1000 | 
16 | CCOc1ccc2cc(-c3nn(C[C@H](C(C)C)N(C)C)c4ncnc(N)c34)ccc2c1 | 960 | 
17 | CCOc1ccc2cc(-c3nn(C[C@H]4CCCN4)c4ncnc(N)c34)ccc2c1 | 970 | 

Row | SMILES | EC50 [1] [nM] | further results
18 | CCOc1ccc2cc(-c3nn(C[C@H]4CCCN4C)c4ncnc(N)c34)ccc2c1 | 860 | 
19 | CCOc1ccc2cc(-c3nn(C4CCNCC4)c4ncnc(N)c34)ccc2c1 | 45 | 
20 | CCOc1ccc2cc(-c3nn(C4CCN(C)CC4)c4ncnc(N)c34)ccc2c1 | 50 | IC50 [3]: > 10 µM; IC50 [4]: 120 nM; IC50 [5]: > 10 µM; IC50 [6]: > 10 µM; IC50 [7]: 10 µM; IC50 [8]: > 10 µM; GI50 [9]: > 10 µM; GI50 [10]: > 10 µM
21 | CCOc1ccc2cc(-c3nn(C4CCN(CC)CC4)c4ncnc(N)c34)ccc2c1 | 90 | 
22 | CCCN1CCC(n2nc(-c3ccc4cc(OCC)ccc4c3)c3c(N)ncnc32)CC1 | 160 | 
23 | CCOc1ccc2cc(-c3nn(C4CCN(CCCN)CC4)c4ncnc(N)c34)ccc2c1 | 340 | 
24 | CCOc1ccc2cc(-c3nn(C4CCN(C(C)=O)CC4)c4ncnc(N)c34)ccc2c1 | 29 | 
25 | CCOc1ccc2cc(-c3nn(C4CCN(S(C)(=O)=O)CC4)c4ncnc(N)c34)ccc2c1 | 35 | 
26 | CCOc1ccc2cc(-c3nn(CC4CCN(C)CC4)c4ncnc(N)c34)ccc2c1 | 140 | IC50 [11]: 2.9 nM; IC50 [12]: > 10 µM; IC50 [3]: 4.6 µM; IC50 [4]: 3300 nM; IC50 [5]: > 10 µM; IC50 [6]: > 10 µM; IC50 [7]: > 10 µM; IC50 [8]: > 10 µM; GI50 [9]: > 10 µM; GI50 [10]: > 10 µM; EC50 [13]: 1000 nM
27 | CCOc1ccc2cc(-c3nn(CC4CCN(CC)CC4)c4ncnc(N)c34)ccc2c1 | 330 | 
28 | CCOc1ccc2cc(-c3nn(CC4CCN(C(C)=O)CC4)c4ncnc(N)c34)ccc2c1 |  | IC50 [11]: 11 nM; IC50 [12]: > 10 µM
29 | CCOc1ccc2cc(-c3nn(CCC4CCNCC4)c4ncnc(N)c34)ccc2c1 | 140 | 
30 | CCOc1ccc2cc(-c3nn(CCC4CCN(C)CC4)c4ncnc(N)c34)ccc2c1 | 49 | 
31 | CCOc1ccc2cc(-c3nn(CCC4CCN(CC)CC4)c4ncnc(N)c34)ccc2c1 | 100 | 
32 | CCCN1CCC(CCn2nc(-c3ccc4cc(OCC)ccc4c3)c3c(N)ncnc32)CC1 | 180 | 
33 | CCOc1ccc2cc(-c3nn(CCC4CCN(CCCN)CC4)c4ncnc(N)c34)ccc2c1 | 1200 | 
